Where “and” joins values, the source holds several entries; their conditions need not be identical. Equal entries are not always repeated. Toxic doses and inconclusive results are not listed.

The assay has as its system P388 leukemia ip, CD2F1 mice, survival T/C. Description: NCI In Vivo Anticancer Drug Screen. Data for tumor model P388 Leukemia (intraperitoneal) in CD2F1 (CDF1) mice. Conditions: endpoint: median survival time, higher = longer survival. The method in brief: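 Mice carrying the transplanted tumor received test compound or vehicle. Survival was recorded in each group, and the value is the treated-group measurement divided by that of the vehicle-treated control group.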

Setting [1] is: dose: 60.0 mg/kg/injection, schedule: Q01DX005 (ip), vehicle: saline with Tween-80.
Setting [2] is: dose: 100.0 mg/kg/injection, schedule: Q04DX002 (ip), vehicle: saline with Tween-80.
Setting [3] is: dose: 120.0 mg/kg/injection, schedule: Q01DX005 (ip), vehicle: saline with Tween-80.
The mark [4] stands for this setting: dose: 200.0 mg/kg/injection, schedule: Q04DX002 (ip), vehicle: saline with Tween-80.
Setting [5] is: dose: 240.0 mg/kg/injection, schedule: Q01DX005 (ip), vehicle: saline with Tween-80.
Where [6] appears, read: dose: 12.5 mg/kg/injection, schedule: Q01DX009 (ip), vehicle: saline with Tween-80.
The mark [7] stands for this setting: dose: 50.0 mg/kg/injection, schedule: Q04DX002 (ip), vehicle: saline with Tween-80.
[8] abbreviates: dose: 100.0 mg/kg/injection, schedule: Q04DX003 (ip), vehicle: saline with Tween-80.
[9] abbreviates: dose: 200.0 mg/kg/injection, schedule: Q04DX003 (ip), vehicle: saline with Tween-80.
Setting [10] is: dose: 400.0 mg/kg/injection, schedule: Q04DX003 (ip), vehicle: saline with Tween-80.

For `O=C1CSC(c2cccnc2)N1CCN1C(=O)CSC1c1cccnc1` (stereo unspecified), the T/C is, setting by setting: under setting [1], 105 % of control; under setting [2], 112 % of control; under setting [3], 105 % of control; under setting [4], 112 % of control; under setting [5], 101 % of control; (dose: 400.0 mg/kg/injection, schedule: Q04DX002 (ip), vehicle: saline with Tween-80) 109 % of control.
For `CC(C)(O)C1C2OC(=O)C1C1(O)CC3OC34C(=O)OC2C14C` (stereo unspecified), the T/C is, setting by setting: under setting [6], 100 % of control; (dose: 25.0 mg/kg/injection, schedule: Q01DX009 (ip), vehicle: saline with Tween-80) 100 % of control; (dose: 33.0 mg/kg/injection, schedule: Q04DX003 (ip), vehicle: saline with Tween-80) 104 % of control; (dose: 50.0 mg/kg/injection, schedule: Q01DX009 (ip), vehicle: saline with Tween-80) 100 % of control; (dose: 50.0 mg/kg/injection, schedule: Q04DX003 (ip), vehicle: saline with Tween-80) 109 % of control.
As to `CN1CCc2cc3c(cc2C1O)OCO3` (stereo unspecified), the T/C (dose: 50.0 mg/kg/injection, schedule: Q01DX005 (ip), vehicle: saline with Tween-80) is 100 % of control and the T/C (dose: 100.0 mg/kg/injection, schedule: Q01DX005 (ip), vehicle: saline with Tween-80) was 110 % of control.
In the case of `COc1cc(-c2ccc(N=Nc3c(O)ccc4ccccc34)c(OC)c2)ccc1N=Nc1ccc2c(S(=O)(=O)O)cc(S(=O)(=O)O)c(N)c2c1O`, the T/C runs as follows: (dose: 66.0 mg/kg/injection, schedule: Q01DX009 (ip), vehicle: saline) 102 % of control; (dose: 100.0 mg/kg/injection, schedule: Q01DX009 (ip), vehicle: saline) 118 % of control; (dose: 150.0 mg/kg/injection, schedule: Q01DX009 (ip), vehicle: saline) 114 % of control.
Consider `CC(=Nc1cc(Cl)ccc1O)C1=C(O)c2ccccc2C1=O`, for which the T/C runs as follows: under setting [7], 94 % of control; under setting [2], 97 % of control; under setting [4], 97 % of control.
In the case of `COc1ccc(C2C3CCCC(C3O)C(c3ccc(OC)cc3)N2C)cc1` (stereo unspecified), the T/C runs as follows: (dose: 100.0 mg/kg/injection, schedule: Q04DX003 (ip), vehicle: suspension in saline) 103 % of control; (dose: 200.0 mg/kg/injection, schedule: Q04DX003 (ip), vehicle: suspension in saline) 104 % of control; (dose: 400.0 mg/kg/injection, schedule: Q04DX003 (ip), vehicle: suspension in saline) 100 % of control.
For `S=C(NC1CCCCC1)NC1CCCCC1`, the T/C (dose: 100.0 mg/kg/injection, schedule: Q01DX009 (ip), vehicle: saline with Tween-80) was 90 % of control; the T/C under setting [8] was 95 % of control; the T/C (dose: 200.0 mg/kg/injection, schedule: Q01DX009 (ip), vehicle: saline with Tween-80) was 90 % of control; the T/C under setting [9] is 90 % of control; the T/C (dose: 400.0 mg/kg/injection, schedule: Q01DX009 (ip), vehicle: saline with Tween-80) was 86 % of control; the T/C under setting [10] is 90 % of control.
With `CC(C)CC(Nc1ncnc2c1CCc1ccccc1-2)C(=O)O` (stereo unspecified), the T/C runs as follows: under setting [7], 100 % of control; under setting [2], 90 % of control; under setting [4], 99 % of control.
In the case of `CC1(C)OC(C(CCl)OS(C)(=O)=O)C(C(CCl)OS(C)(=O)=O)O1` (stereo unspecified), the T/C by setting is: (dose: 50.0 mg/kg/injection, schedule: Q04DX003 (ip), vehicle: Klucel (hydroxypropylcellulose) (HPC)) 92 % of control; (dose: 100.0 mg/kg/injection, schedule: Q04DX003 (ip), vehicle: Klucel (hydroxypropylcellulose) (HPC)) 100 % of control; (dose: 200.0 mg/kg/injection, schedule: Q04DX003 (ip), vehicle: Klucel (hydroxypropylcellulose) (HPC)) 100 % of control.
For `NCCS(=O)(=O)O`, the T/C was 90 % of control (dose: 100.0 mg/kg/injection, schedule: Q01DX009 (ip), vehicle: water); 86 % of control (dose: 200.0 mg/kg/injection, schedule: Q01DX009 (ip), vehicle: water); 86 % of control (dose: 400.0 mg/kg/injection, schedule: Q01DX009 (ip), vehicle: water); 90 % of control (dose: 800.0 mg/kg/injection, schedule: Q01DX009 (ip), vehicle: water).
In the case of `CC(=O)C1=C(O)C2(C)c3c(O)c(C)c(O)c(C(C)=O)c3OC2CC1=O` (stereo unspecified), the T/C (dose: 6.25 mg/kg/injection, schedule: Q01DX009 (ip), vehicle: gum acacia) is 100 % of control and 106 % of control; the T/C (dose: 12.5 mg/kg/injection, schedule: Q01DX009 (ip), vehicle: gum acacia) was 103 % of control and 108 % of control; the T/C (dose: 25.0 mg/kg/injection, schedule: Q01DX009 (ip), vehicle: gum acacia) is 108 % of control and 110 % of control; the T/C (dose: 50.0 mg/kg/injection, schedule: Q01DX009 (ip), vehicle: gum acacia) is 108 % of control and 110 % of control.
On to `COc1ccc(CCN2CCC(CC3CCCCN3)CC2)cc1OC` (stereo unspecified), for which the T/C is, setting by setting: (dose: 12.5 mg/kg/injection, schedule: Q01DX009 (ip), vehicle: distilled water + alcohol) 103 % of control; (dose: 25.0 mg/kg/injection, schedule: Q01DX009 (ip), vehicle: distilled water + alcohol) 112 % of control; (dose: 50.0 mg/kg/injection, schedule: Q01DX009 (ip), vehicle: distilled water + alcohol) 105 % of control; (dose: 100.0 mg/kg/injection, schedule: Q01DX009 (ip), vehicle: distilled water + alcohol) 103 % of control.
For the molecule `O=C(c1ccccc1)N1C=CN(C(=O)c2ccccc2)C(c2ccccc2)C1c1ccccc1` (stereo unspecified), the T/C by setting is: (dose: 60.0 mg/kg/injection, schedule: Q01DX005 (ip), vehicle: Klucel (hydroxypropylcellulose) (HPC)) 88 % of control; (dose: 120.0 mg/kg/injection, schedule: Q01DX005 (ip), vehicle: Klucel (hydroxypropylcellulose) (HPC)) 90 % of control.
On to `COC(=O)c1cc([O-])c2sc(C)c(C)[n+]2n1`, for which the T/C under setting [1] was 100 % of control, the T/C under setting [3] is 100 % of control and the T/C under setting [5] is 100 % of control.
For the molecule `O=C(NC(Cc1ccccc1)C(=O)O)OCc1ccccc1` (stereo unspecified) (tested in a mixture with another compound), the T/C (dose: 6.25 mg/kg/injection, schedule: Q01DX005 (ip), vehicle: Klucel (hydroxypropylcellulose) (HPC)) was 109 % of control; the T/C (dose: 12.5 mg/kg/injection, schedule: Q01DX005 (ip), vehicle: Klucel (hydroxypropylcellulose) (HPC)) is 106 % of control; the T/C (dose: 25.0 mg/kg/injection, schedule: Q01DX005 (ip), vehicle: Klucel (hydroxypropylcellulose) (HPC)) is 94 % of control.
As to `Cc1c(Cl)cccc1NC(=O)/C=C/C(=O)O`, the T/C runs as follows: under setting [8], 90 % of control; under setting [9], 95 % of control; under setting [10], 90 % of control.
`NCCNCC(O)CO` (stereo unspecified): the T/C by setting is: (dose: 50.0 mg/kg/injection, schedule: Q01DX005 (ip), vehicle: saline + Tween-80 + alcohol) 102 % of control; (dose: 100.0 mg/kg/injection, schedule: Q01DX005 (ip), vehicle: saline + Tween-80 + alcohol) 102 % of control; (dose: 200.0 mg/kg/injection, schedule: Q01DX005 (ip), vehicle: saline + Tween-80 + alcohol) 99 % of control.
Consider `N=C1CCCS1`, for which the T/C was 115 % of control (dose: 25.0 mg/kg/injection, schedule: Q01DX005 (ip), vehicle: saline) and 150 % of control (dose: 100.0 mg/kg/injection, schedule: Q01DX005 (ip), vehicle: saline).
For the molecule `C[N+](C)(C)Cc1ccccc1`, the T/C runs as follows: (dose: 3.13 mg/kg/injection, schedule: Q01DX009 (ip), vehicle: saline with Tween-80) 100 % of control; (dose: 3.13 mg/kg/injection, schedule: Q01DX009 (ip), vehicle: saline) 99 % of control; (dose: 6.25 mg/kg/injection, schedule: Q01DX009 (ip), vehicle: Klucel (hydroxypropylcellulose) (HPC)) 95 % of control; (dose: 6.25 mg/kg/injection, schedule: Q01DX009 (ip), vehicle: saline with Tween-80) 100 % of control; (dose: 6.25 mg/kg/injection, schedule: Q01DX009 (ip), vehicle: saline) 94 % of control; (dose: 12.5 mg/kg/injection, schedule: Q01DX009 (ip), vehicle: Klucel (hydroxypropylcellulose) (HPC)) 93 % of control. For the same molecule, the T/C was 100 % of control under setting [6]; 96 % of control (dose: 12.5 mg/kg/injection, schedule: Q01DX009 (ip), vehicle: saline); 99 % of control (dose: 25.0 mg/kg/injection, schedule: Q01DX009 (ip), vehicle: Klucel (hydroxypropylcellulose) (HPC)).

The values are drawn from PubChem BioAssay AID330 (DTP/NCI, 2004).
